Measured values as given in BindingDB's records for doi:10.1016/s0960-894x(01)00577-7 (University of Toledo, 2001).

Assay: Inhibitory concentration against polymerization in A17 double mutant HIV-1 RT using a template primer of poly rC/dG12-18 and [3H]dGTP

| SMILES | IC50 |
| --- | --- |
| O=C(OC1COc2cc(O)ccc2C1)c1ccc(O)c(O)c1O (stereo not drawn) [2,3,4-Trihydroxy-benzoic acid 7-hydroxy-chroman-3-yl ester] | 30.8 µM |
| O=C(OC1COc2ccccc2C1)c1ccc(O)c(O)c1O (stereo not drawn) [2,3,4-Trihydroxy-benzoic acid chroman-3-yl ester] | > 100 µM |
| O=C(OC1COc2cc(O)cc(O)c2C1)c1cccc(O)c1O (stereo not drawn) [2,3-Dihydroxy-benzoic acid 5,7-dihydroxy-chroman-3-yl ester] | > 100 µM |
